Results: patent EP4653445A1, “CDK INHIBITOR AND CRYSTAL FORM OF PHARMACEUTICALLY ACCEPTABLE SALT THEREOF, AND USE THEREOF” (CSPC Zhongqi Pharmaceutical Technology (Shijiazhuang) Co., …, priority 2023, dated 2024)
“And” between values parts separate entries of the source, which are not always exact repeats. Identical values can stand only once. Counter-ions that a name gives are not always drawn.

Legend:
HCC1187 = test: In vitro tumor cell proliferation inhibition test (CTG); type: cell-based; conditions: 4-7 days; for IC50: Homo sapiens, HCC1187, Triple-negative breast cancer; for Maximum Inhibition Rate: Triple-negative breast cancer
Description: (§1) The cells were subcultured regularly, and those in the logarithmic growth phase were taken for plating. The cells were stained with trypan blue and the viable cells were counted. The cell concentration was adjusted to an appropriate level. The cell suspension was added to each well of the culture plate, and the culture medium without cells was added to the blank control wells. […] The compound working solution was added to the cell culture plate, and DMSO at the same final concentration was added to the solvent control wells. Then the plate was returned to the incubator for 4-7 days of culture. The cell viability was detected according to the instructions of the Promega CellTiter-Glo (CTG) Luminescent Cell Viability Assay Kit (Promega-G7573). […] The IC50 was calculated using the following equation: [formula] • X: log(concentration) • Y: response value, negatively correlated with X • HillSlope: slope factor • Note: […]

MCF-7 = test: as above; type: cell-based; conditions: 4-7 days; for Maximum Inhibition Rate: HR+/HER2- Breast cancer; for IC50: Homo sapiens, MCF7, HR+/HER2- Breast cancer
Description: as §1

MDA-MB-231 = test: as above; type: cell-based; conditions: 4-7 days; for IC50: Homo sapiens, MDA-MB-231, Triple-negative breast cancer; for Maximum Inhibition Rate: Triple-negative breast cancer
Description: as §1

MDA-MB-453 = test: as above; type: cell-based; conditions: 4-7 days; for Maximum Inhibition Rate: HR-/HER2+ Breast cancer; for IC50: Homo sapiens, MDA-MB-453, HR-/HER2+ Breast cancer
Description: as §1

MDA-MB-468 (Rb-) = test: as above; type: cell-based; conditions: 4-7 days; for Maximum Inhibition Rate: Breast cancer (primary resistance to Palbociclib); for IC50: Homo sapiens, MDA-MB-468, Breast cancer (primary resistance to Palbociclib)
Description: as §1

T47D = test: as above; type: cell-based; conditions: HR+/HER2- Breast cancer, 4-7 days; for IC50: Homo sapiens, T47D
Description: as §1

xMCF-7/Palbo-R = test: as above; type: cell-based; conditions: Breast cancer (acquired resistance to Palbociclib), 4-7 days
Description: as §1

A2780 = test: as above; type: cell-based, Human; conditions: 4-7 days
Description: (§2) The tumor cell strains were cultured in an incubator at 37 °C with 5% CO2. The cells were subcultured regularly, and those in the logarithmic growth phase were taken for plating. The cells were stained with trypan blue and the viable cells were counted. The cell concentration was adjusted to an appropriate level. The cell suspension was added to each well of the culture plate, and the culture medium without cells was added to the blank control wells. The culture plate was incubated overnight in an incubator at 37 °C, 5% CO2, and 100% RH. […] The compound working solution was added to the cell culture plate, and DMSO at the same final concentration was added to the solvent control wells. Then the plate was returned to the incubator for 4-7 days of culture. The cell viability was detected according to the instructions of the Promega CellTiter-Glo (CTG) Luminescent Cell Viability Assay Kit (Promega-G7573).
(§3) The inhibition rates of the compound at different concentrations were calculated in Excel, then the inhibition curve was plotted using GraphPad Prism software and relevant parameters, including the minimum inhibition rate, maximum inhibition rate, and IC50 were calculated.

COLO 205 = test: as above; type: cell-based, Human; conditions: 4-7 days
Description: as §2, §3

HCT 116 = test: as above; type: cell-based, Human; conditions: 4-7 days
Description: as §2, §3

HT-29 = test: as above; type: cell-based, Human; conditions: 4-7 days
Description: as §2, §3

Hep3B (Rb-) = test: as above; type: cell-based, Human; conditions: Liver cancer, 4-7 days
Description: as §2, §3

Huh-7 = test: as above; type: cell-based, Human; conditions: 4-7 days
Description: as §2, §3

JHH-7 = test: as above; type: cell-based, Human; conditions: 4-7 days
Description: as §2, §3

MOLM-13 = test: as above; type: cell-based, Human; conditions: 4-7 days
Description: as §2, §3

MV-4-11 = test: as above; type: cell-based, Human; conditions: 4-7 days
Description: as §2, §3

NCI-H211 = test: as above; type: cell-based, Human; conditions: 4-7 days
Description: as §2, §3

SK-MEL-5 = test: as above; type: cell-based, Human; conditions: 4-7 days
Description: as §2, §3

[1] = Solubility comparison in water, SGF, FaSSIF and FeSSIF (HPLC of filtrates, XRPD of filter cakes); conditions: time not stated
[2] = Dynamic vapor sorption (DVS) test; type: physicochemical
Description: • Instrument: TA Instruments Q5000 SA • Detection method: 20 to 50 mg of the sample was placed in a tared sample basket and automatically weighed, and DVS testing was performed according to the parameters in Table 7: Step Time: 60 min; Equilibration Time per RH%: 1 hour; Total Gas Flow Rate: 200 sccm; Gradient mode: 0%-90%-0% humidity variation, with a humidity variation amount of 10% for each gradient level between 0% and 90%, and gradient endpoint was determined by dm/dt < 0.01% maintained for 10 minutes.

[3] = Stability test, samples placed open for 7 days (HPLC and XRPD); type: physicochemical; conditions: for XRPD-7days / Purity (Peak area%) 7 days: open
Excerpt: Subsequently, the samples after 7 days were respectively detected by HPLC and XRPD to determine their chemical and physical stabilities.

[4] = as above; type: physicochemical; conditions: HPLC

In the case of `CC(=O)c1c(C)c2cnc(Nc3ccc4c(c3)OC[C@@H]3CN(C5CCN(C)CC5)CCN43)nc2n(C2CCCC2)c1=O` [Compound A], the IC50 (HCC1187) is reported as 1110 nM, the “Maximum Inhibition Rate” value (HCC1187) is reported as 99.777% and the “Maximum Inhibition Rate” value (MCF-7) is reported as 99.937%. The IC50 (MCF-7) was 76 nM, the IC50 (MDA-MB-231) was 3.45 µM and the “Maximum Inhibition Rate” value (MDA-MB-231) was 99.567%. For the same compound, the “Maximum Inhibition Rate” value (MDA-MB-453) was 102.600%, the “Maximum Inhibition Rate” value (MDA-MB-453; listed as compound A) was about 100% and the IC50 (MDA-MB-453) was 384 nM. For the same compound, the “Maximum Inhibition Rate” value (MDA-MB-468 (Rb-)) was 99.693%, the “Maximum Inhibition Rate” value (MDA-MB-468 (Rb-); listed as compound A) was “exceeding 99%” and the IC50 (MDA-MB-468 (Rb-)) was 440 nM. For the same compound, the “Maximum Inhibition Rate” value (T47D) was 99.910%, the IC50 (T47D) was 1500 nM and the IC50 (xMCF-7/Palbo-R) was 3.09 µM. The “Maximum Inhibition Rate” value (xMCF-7/Palbo-R) was 99.677%, the IC50 (A2780; Homo sapiens, A2780, Ovarian cancer) was 438 nM and the “Maximum Inhibition Rate” value (A2780; Ovarian cancer) was 98.887%. The “Maximum Inhibition Rate” value (COLO 205; Colorectal cancer) was 99.093%, the IC50 (COLO 205; Homo sapiens, COLO 205, Colorectal cancer) was 734 nM and the “Maximum Inhibition Rate” value (HCT 116; Colorectal cancer) was 99.244%. For the same compound, the IC50 (HCT 116; Homo sapiens, HCT-116, Colorectal cancer) was 134 nM, the “Maximum Inhibition Rate” value (HT-29; Colorectal cancer) was 95.622% and the IC50 (HT-29; Homo sapiens, HT-29, Colorectal cancer) was 113 nM. For the same compound, the IC50 (Hep3B (Rb-); Homo sapiens, Hep3B) was 3.33 µM, the “Maximum Inhibition Rate” value (Hep3B (Rb-)) was 99.055% and the “Maximum Inhibition Rate” value (Hep3B (Rb-); listed as compound A) was “exceeding 99%”. The IC50 (Huh-7; Homo sapiens, Huh-7, Liver cancer) was 107 nM, the “Maximum Inhibition Rate” value (Huh-7; Liver cancer) was 99.447% and the IC50 (JHH-7; Homo sapiens, JHH7, Liver cancer) was 107 nM. For the same compound, the “Maximum Inhibition Rate” value (JHH-7; Liver cancer) was 99.394%, the “Maximum Inhibition Rate” value (MOLM-13; Hematological tumor) was 99.993% and the IC50 (MOLM-13; Homo sapiens, MOLM-13, Hematological tumor) was 370 nM. The “Maximum Inhibition Rate” value (MV-4-11; Hematological tumor) was 99.897%, the IC50 (MV-4-11; Homo sapiens, MV4-11, Hematological tumor) was 102 nM and the IC50 (NCI-H211; Homo sapiens, NCI-H211, Small cell lung cancer) was 201 nM. The “Maximum Inhibition Rate” value (NCI-H211; Small cell lung cancer) was 99.883%, the IC50 (SK-MEL-5; Homo sapiens, SK-MEL-5, Melanoma) was 9.5 µM and the “Maximum Inhibition Rate” value (SK-MEL-5; Melanoma) was 99.213%. The “solubility in SGF” value ([1]; SGF, listed as free base) was “greater than 5 mg/mL” and the solubility in water ([1]; water) was “approximately 0.003 mg/mL”.
In the case of `CC(=O)c1c(C)c2cnc(Nc3ccc(N4CCNCC4)cn3)nc2n(C2CCCC2)c1=O` [Palbociclib, reference compound], the IC50 (HCC1187) is reported as over 5000 nM, the “Maximum Inhibition Rate” value (HCC1187) is reported as 11.183% and the “Maximum Inhibition Rate” value (MCF-7) is reported as 96.983%. The IC50 (MCF-7) was 52 nM, the IC50 (MDA-MB-231) was over 5 µM and the “Maximum Inhibition Rate” value (MDA-MB-231) was 41.943%. For the same compound, the IC50 (MDA-MB-453) was 188 nM, the “Maximum Inhibition Rate” value (MDA-MB-468 (Rb-)) was 34% and 34.044% and the IC50 (MDA-MB-468 (Rb-)) was over 5000 nM. The “Maximum Inhibition Rate” value (T47D) was 48.850%, the IC50 (T47D) was over 5000 nM and the IC50 (xMCF-7/Palbo-R) was 7.7 µM. The “Maximum Inhibition Rate” value (xMCF-7/Palbo-R) was 98.367%.
For `CC(=O)c1c(C)c2cnc(Nc3ccc4c(c3)OC[C@@H]3CN(C5CCN(C)CC5)CCN43)nc2n(C2CCCC2)c1=O` [crystalline form B of the hydrochloride salt of compound A], the “XRPD pattern / crystalline form after the DVS test” value ([2]; before vs after DVS test) was “did not change”, the XRPD-7days ([3]; 40°C /75%RH) was “Unchanged” and the “Purity (Peak area%) 7 days” value ([3]; 40°C /75%RH, HPLC) was 99.33 Peak area%. For the same compound, the chemical stability ([3]; 60 °C, 92.5% RH and 40 °C/75% RH for 7 days, HPLC) was “chemically stable”, the XRPD-7days ([3]; 60°C) was “Unchanged” and the “Purity (Peak area%) 7 days” value ([3]; 60°C, HPLC) was 99.38 Peak area%. For the same compound, the XRPD-7days ([3]; 92.5%RH) was “Unchanged”, the “Purity (Peak area%) 7 days” value ([3]; 92.5%RH, HPLC) was 99.36 Peak area% and the “crystalline form (XRPD) after 7 days” value ([3]; under the three conditions 60 °C, 92.5% RH and 40 °C/75% RH) was “remained unchanged”. The “Purity (Peak area%) 0 day” value [4] was 99.31 Peak area%.
For `CC(=O)c1c(C)c2cnc(Nc3ccc4c(c3)OC[C@@H]3CN(C5CCN(C)CC5)CCN43)nc2n(C2CCCC2)c1=O` [crystalline form C of the benzenesulfonate of compound A], the moisture absorption ([2]; DVS, at 80% RH) was 1.2%, the XRPD-7days ([3]; 40°C /75%RH) was “remained unchanged” and the “Purity (Peak area%) 7 days” value ([3]; 40°C /75%RH, HPLC) was 98.79 Peak area%. For the same compound, the XRPD-7days ([3]; 60°C) was “remained unchanged”, the “Purity (Peak area%) 7 days” value ([3]; 60°C, HPLC) was 98.89 Peak area% and the XRPD-7days ([3]; 92.5%RH) was “changed into a new crystalline form”. The “Purity (Peak area%) 7 days” value ([3]; 92.5%RH, HPLC) was 98.84 Peak area% and the “Purity (Peak area%) 0 day” value [4] was 98.79 Peak area%.
